From ChEMBL document CHEMBL1833915, “Discovery of potent, orally bioavailable phthalazinone bradykinin B1 receptor antagonists” (J Med Chem, 2011)
One block for each compound: values may come before it. Calls of active or inactive are those of the source. No cut-off for these calls is given here.

Key:
[1] = target: T1, B1 bradykinin receptor (Homo sapiens, UniProt P46663); test: Antagonist activity at human B1 receptor; assay type: functional
T1 sequence (P46663 whole entry): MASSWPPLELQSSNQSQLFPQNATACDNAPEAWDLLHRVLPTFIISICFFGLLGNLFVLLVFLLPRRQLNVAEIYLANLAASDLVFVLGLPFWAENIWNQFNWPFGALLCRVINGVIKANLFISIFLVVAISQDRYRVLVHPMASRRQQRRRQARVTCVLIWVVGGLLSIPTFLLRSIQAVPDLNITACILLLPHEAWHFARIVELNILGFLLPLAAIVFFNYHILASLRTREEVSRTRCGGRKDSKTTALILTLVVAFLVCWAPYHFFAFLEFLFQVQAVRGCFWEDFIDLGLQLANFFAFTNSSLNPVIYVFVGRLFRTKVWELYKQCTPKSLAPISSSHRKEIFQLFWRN

[2] = Half life in Sprague-Dawley rat at 2 mg/kg, iv; assay type: ADME, organism-based; parameters: dose 2 mg/kg, route intravenous; settings: in vivo
[3] = target: T2, B1 bradykinin receptor (Oryctolagus cuniculus, UniProt P48748); test: Inhibition of rabbit B1 receptor by cellular calcium flux assay; assay type: functional
T2 sequence (P48748 whole entry): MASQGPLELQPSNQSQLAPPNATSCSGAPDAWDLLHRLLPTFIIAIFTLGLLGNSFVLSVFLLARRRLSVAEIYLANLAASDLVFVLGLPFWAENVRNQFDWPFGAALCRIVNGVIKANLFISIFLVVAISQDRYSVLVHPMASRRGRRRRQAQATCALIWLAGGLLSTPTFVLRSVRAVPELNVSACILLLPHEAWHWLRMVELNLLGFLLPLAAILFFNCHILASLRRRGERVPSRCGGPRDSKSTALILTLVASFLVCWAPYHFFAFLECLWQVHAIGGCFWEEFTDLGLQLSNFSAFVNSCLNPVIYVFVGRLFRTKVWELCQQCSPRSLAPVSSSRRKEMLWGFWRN

[4] = target: Voltage-gated inwardly rectifying potassium channel KCNH2 (Homo sapiens, UniProt Q12809); test: Inhibition of human hERG at 1 uM
[5] = tested on: Oryctolagus cuniculus; test: […] activity in LPS treated rabbit assessed as reversal of DAK-induced hypotension at 0.03 to 3 mg/kg, sc; assay type: functional, organism-based
[6] = tested on: Oryctolagus cuniculus; test: Antihypertensive activity in sc dosed rabbit assessed as reduction in DAK-induced hypotension
[7] = Fraction unbound in rabbit plasma; assay type: ADME, cell-free, Oryctolagus cuniculus
[8] = target: Sodium channel protein type 5 subunit alpha (Homo sapiens, UniProt Q14524); test: Activity at Nav1.5 ion channel at 1 uM
[9] = Oral bioavailability in Sprague-Dawley rat at 5 mg/kg; assay type: ADME, organism-based; settings: in vivo
[10] = Volume of distribution at steady state in Sprague-Dawley rat at 2 mg/kg, iv; assay type: ADME, organism-based; parameters: dose 2 mg/kg, route intravenous; settings: in vivo, read-out: Vdss
[11] = target: T1, B1 bradykinin receptor; test: Antagonist activity at human B1 receptor expressed in CHO cells by aequorin-based calcium flux assay; assay type: functional, cell-based
[12] = Clearance in Sprague-Dawley rat at 2 mg/kg, iv; assay type: ADME, organism-based; parameters: dose 2 mg/kg, route intravenous; settings: in vivo
[13] = tested on: Oryctolagus cuniculus; test: […] activity in LPS treated rabbit assessed as reversal of DAK-induced hypotension at 0.003 to 1 mg/kg, sc; assay type: functional, organism-based
[14] = target: Potassium voltage-gated channel subfamily A member 5 (Homo sapiens) (UniProt P22460); test: Activity at Kv1.5 ion channel at 1 uM
[15] = target: T1, B1 bradykinin receptor; test: Antagonist activity at human B1 receptor by cell-based assay; assay type: functional
[16] = Clearance in dog at 1 mg/kg, iv; assay type: ADME, organism-based, Canis lupus familiaris; parameters: dose 1 mg/kg, route intravenous; settings: in vivo
[17] = Oral bioavailability in dog at 1 mg/kg; assay type: ADME, organism-based, Canis lupus familiaris; settings: in vivo
[18] = Half life in dog at 1 mg/kg, iv; assay type: ADME, organism-based, Canis lupus familiaris; parameters: dose 1 mg/kg, route intravenous; settings: in vivo
[19] = Volume of distribution at steady state in dog at 1 mg/kg, iv; assay type: ADME, organism-based, Canis lupus familiaris; parameters: dose 1 mg/kg, route intravenous; settings: in vivo, read-out: Vdss
[20] = Clearance in Sprague-Dawley rat; assay type: ADME, organism-based; settings: in vivo
[21] = Oral bioavailability in Sprague-Dawley rat; assay type: ADME, organism-based; settings: in vivo

Chain of Potassium voltage-gated channel subfamily A member 5 (Homo sapiens) (P22460 whole entry): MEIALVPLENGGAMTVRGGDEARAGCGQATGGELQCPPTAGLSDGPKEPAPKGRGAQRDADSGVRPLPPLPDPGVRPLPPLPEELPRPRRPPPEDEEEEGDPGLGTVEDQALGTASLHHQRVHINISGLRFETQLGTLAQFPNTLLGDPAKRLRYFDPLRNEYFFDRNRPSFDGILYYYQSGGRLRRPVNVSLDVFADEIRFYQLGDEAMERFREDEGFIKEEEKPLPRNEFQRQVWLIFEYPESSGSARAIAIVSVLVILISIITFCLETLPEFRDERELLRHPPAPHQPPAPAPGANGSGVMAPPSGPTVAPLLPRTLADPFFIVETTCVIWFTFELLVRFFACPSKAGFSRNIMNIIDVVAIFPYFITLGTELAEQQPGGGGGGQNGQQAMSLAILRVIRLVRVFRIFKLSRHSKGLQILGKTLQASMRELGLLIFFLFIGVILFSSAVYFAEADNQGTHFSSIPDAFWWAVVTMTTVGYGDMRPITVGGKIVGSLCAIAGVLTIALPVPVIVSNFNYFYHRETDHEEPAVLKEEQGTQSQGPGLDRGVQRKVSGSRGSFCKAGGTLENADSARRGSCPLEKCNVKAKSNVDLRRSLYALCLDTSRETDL
Chain of Voltage-gated inwardly rectifying potassium channel KCNH2 (Q12809 whole entry): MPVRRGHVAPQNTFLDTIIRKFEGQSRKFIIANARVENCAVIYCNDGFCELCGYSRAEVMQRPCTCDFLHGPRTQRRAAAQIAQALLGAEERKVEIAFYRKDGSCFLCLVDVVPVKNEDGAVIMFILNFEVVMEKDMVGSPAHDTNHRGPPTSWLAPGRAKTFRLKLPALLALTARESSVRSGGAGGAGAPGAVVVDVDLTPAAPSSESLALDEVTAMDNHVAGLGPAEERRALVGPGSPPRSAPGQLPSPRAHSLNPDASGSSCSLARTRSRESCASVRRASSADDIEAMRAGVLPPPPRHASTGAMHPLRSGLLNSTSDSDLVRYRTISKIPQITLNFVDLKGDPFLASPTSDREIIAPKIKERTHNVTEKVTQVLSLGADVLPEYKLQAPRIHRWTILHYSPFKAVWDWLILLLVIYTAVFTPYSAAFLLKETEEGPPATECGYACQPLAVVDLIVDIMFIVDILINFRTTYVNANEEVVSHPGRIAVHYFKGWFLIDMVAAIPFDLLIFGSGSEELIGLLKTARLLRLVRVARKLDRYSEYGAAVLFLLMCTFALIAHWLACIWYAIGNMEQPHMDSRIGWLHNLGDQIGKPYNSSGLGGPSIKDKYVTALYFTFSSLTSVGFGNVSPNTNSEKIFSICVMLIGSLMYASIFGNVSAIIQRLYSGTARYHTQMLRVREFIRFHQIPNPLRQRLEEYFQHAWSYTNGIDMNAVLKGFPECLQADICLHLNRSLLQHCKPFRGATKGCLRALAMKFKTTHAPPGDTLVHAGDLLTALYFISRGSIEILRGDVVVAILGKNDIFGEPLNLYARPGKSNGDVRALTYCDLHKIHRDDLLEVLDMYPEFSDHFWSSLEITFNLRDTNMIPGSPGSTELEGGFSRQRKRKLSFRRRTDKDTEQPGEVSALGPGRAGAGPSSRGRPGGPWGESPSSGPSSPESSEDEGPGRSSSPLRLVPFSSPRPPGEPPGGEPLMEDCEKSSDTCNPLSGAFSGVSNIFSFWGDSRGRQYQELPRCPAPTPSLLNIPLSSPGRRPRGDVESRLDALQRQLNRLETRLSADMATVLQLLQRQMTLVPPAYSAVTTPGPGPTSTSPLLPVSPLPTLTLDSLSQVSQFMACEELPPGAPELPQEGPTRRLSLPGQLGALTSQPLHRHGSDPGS
Chain of Sodium channel protein type 5 subunit alpha (Q14524 whole entry): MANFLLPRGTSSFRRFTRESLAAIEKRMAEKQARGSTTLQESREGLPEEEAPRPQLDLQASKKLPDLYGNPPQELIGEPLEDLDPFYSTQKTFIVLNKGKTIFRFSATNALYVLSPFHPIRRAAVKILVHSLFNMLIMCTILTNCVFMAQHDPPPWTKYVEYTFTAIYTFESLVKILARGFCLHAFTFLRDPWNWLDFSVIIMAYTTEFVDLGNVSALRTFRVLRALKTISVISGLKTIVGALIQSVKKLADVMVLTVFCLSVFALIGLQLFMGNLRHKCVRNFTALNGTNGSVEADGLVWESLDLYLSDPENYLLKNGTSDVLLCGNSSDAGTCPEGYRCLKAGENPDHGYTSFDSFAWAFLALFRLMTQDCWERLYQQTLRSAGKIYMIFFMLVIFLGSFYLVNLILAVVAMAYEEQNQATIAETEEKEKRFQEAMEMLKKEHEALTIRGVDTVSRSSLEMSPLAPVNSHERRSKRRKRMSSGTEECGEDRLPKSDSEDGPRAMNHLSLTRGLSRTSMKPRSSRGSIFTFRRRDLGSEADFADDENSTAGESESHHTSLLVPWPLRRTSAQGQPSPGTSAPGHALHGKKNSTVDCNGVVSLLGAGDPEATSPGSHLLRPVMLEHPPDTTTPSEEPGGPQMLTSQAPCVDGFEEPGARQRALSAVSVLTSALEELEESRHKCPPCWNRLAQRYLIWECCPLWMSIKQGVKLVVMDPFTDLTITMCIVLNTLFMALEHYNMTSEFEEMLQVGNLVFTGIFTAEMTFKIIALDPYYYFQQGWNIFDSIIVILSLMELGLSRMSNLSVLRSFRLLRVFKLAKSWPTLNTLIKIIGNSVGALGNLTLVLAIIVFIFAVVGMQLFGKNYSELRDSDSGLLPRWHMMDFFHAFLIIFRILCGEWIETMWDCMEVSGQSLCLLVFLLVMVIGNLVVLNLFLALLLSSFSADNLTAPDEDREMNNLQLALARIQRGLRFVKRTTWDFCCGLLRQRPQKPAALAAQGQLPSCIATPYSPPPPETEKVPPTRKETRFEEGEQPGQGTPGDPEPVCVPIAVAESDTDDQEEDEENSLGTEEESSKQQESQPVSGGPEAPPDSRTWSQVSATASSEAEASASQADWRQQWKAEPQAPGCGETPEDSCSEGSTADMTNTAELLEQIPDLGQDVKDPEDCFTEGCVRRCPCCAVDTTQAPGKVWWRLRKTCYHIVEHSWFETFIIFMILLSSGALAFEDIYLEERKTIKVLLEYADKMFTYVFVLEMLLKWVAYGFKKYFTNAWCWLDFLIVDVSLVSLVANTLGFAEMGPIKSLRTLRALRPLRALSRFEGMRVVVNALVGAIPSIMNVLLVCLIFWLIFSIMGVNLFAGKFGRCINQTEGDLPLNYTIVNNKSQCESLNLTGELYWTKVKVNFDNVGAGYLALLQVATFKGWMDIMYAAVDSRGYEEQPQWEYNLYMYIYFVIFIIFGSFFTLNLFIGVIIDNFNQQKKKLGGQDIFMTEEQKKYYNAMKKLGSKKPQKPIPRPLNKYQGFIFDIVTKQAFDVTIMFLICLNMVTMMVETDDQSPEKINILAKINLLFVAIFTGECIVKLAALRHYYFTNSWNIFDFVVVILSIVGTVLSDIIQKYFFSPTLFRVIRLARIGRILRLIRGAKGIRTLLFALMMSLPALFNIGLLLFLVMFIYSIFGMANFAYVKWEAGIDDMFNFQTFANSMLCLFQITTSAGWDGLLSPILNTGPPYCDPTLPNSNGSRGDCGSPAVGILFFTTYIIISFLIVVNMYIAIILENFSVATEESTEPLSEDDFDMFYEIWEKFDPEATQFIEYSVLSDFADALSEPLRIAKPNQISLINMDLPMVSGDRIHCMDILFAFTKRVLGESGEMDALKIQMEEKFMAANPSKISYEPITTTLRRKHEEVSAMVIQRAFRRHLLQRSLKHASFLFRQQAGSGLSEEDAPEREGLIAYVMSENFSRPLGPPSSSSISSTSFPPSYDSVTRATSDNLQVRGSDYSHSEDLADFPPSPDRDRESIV

SMILES: Cc1nn(-c2ccc(C(=O)N[C@@H]3CCCc4cc(CN5CCCCC5)ccc43)cc2)c(=O)c2c(F)cccc12
Ki [1]: 1.9 nM

SMILES: Cc1nn(-c2ccc(C(=O)N[C@@H]3CCCc4cc(CN5CCCCC5)ccc43)cn2)c(=O)c2c(F)cccc12
half-life [2]: 3.3 h | IC50 [3]: 0.6 nM | Activity [4]: Not Active | Activity [5]: Active | IC50 [6]: 2.5 nM | fraction unbound [7]: 0.24 | Activity [8]: Not Active | bioavailability [9]: 61% | Vd [10]: 6.45 L/kg | IC50 [11]: 0.09 nM | clearance [12]: 23.5 mL/min/kg | Activity [13]: Active | Activity [14]: inactive | Ki [1]: 0.6 nM

SMILES: Cc1nn(-c2ccc(C(=O)N[C@@H]3CCCc4cc(CN5CCCCC5)ccc43)cc2)c(=O)c2c(F)ccc(F)c12
Ki [1]: 3.5 nM

SMILES: CCc1nn(-c2ccc(C(=O)N[C@@H]3CCCc4cc(CN5CCCCC5)ccc43)cc2)c(=O)c2ccccc12
Ki [1]: 29 nM

SMILES: O=C(N[C@@H]1CCCc2cc(CN3CCCCC3)ccc21)c1ccc(-n2nc(-c3ccccc3)c3ccccc3c2=O)cc1
Ki [1]: 418 nM

SMILES: Cc1nn(-c2ccc(C(=O)N[C@@H]3CCCc4cc(CN5CCCCC5)ccc43)cn2)c(=O)c2c(F)ccc(F)c12
IC50 [3]: 2.2 nM | IC50 [11]: 0.3 nM | Ki [1]: 0.6 nM

SMILES: O=C(N[C@@H]1CCCc2cc(CN3CCCCC3)ccc21)c1ccc(-n2cnc3ccccc3c2=O)cc1
Ki [1]: 614 nM

More lines, main results first:

Ki [1]: 296 nM
SMILES: O=C(Cc1ccc(C(=O)N[C@@H]2CCCc3cc(CN4CCCCC4)ccc32)cc1)c1ccccc1

Ki [1]: 64 nM
SMILES: O=C(N[C@@H]1CCCc2cc(CN3CCCCC3)ccc21)c1cccc(-c2coc3ccccc3c2=O)c1

half-life [2]: 6.1 h | bioavailability [9]: 51% | Vd [10]: 8.09 L/kg | clearance [12]: 15 mL/min/kg | Ki [1]: 35 nM
SMILES: Cc1nn(-c2ccc(C(=O)N[C@@H]3CCCc4cc(CN5CCCCC5)ccc43)cc2)c(=O)c2ccccc12

IC50 [15]: 1370 nM | Ki [1]: 1680 nM
SMILES: O=C(CCCCC(=O)c1ccccc1)N[C@@H]1CCCc2cc(CN3CCCCC3)ccc21

clearance [16]: 19 mL/min/kg | half-life [2]: 10.4 h | bioavailability [17]: 60% | IC50 [3]: 21.4 nM | half-life [18]: 8.9 h | Vd [19]: 10.6 L/kg | bioavailability [9]: 90% | Vd [10]: 7.85 L/kg | IC50 [11]: 1 nM | clearance [12]: 11.2 mL/min/kg | Ki [1]: 0.9 nM
SMILES: Cc1nn(-c2ccc(C(=O)N[C@@H]3CCCc4cc(CN5CCCCC5)ccc43)cc2)c(=O)c2c(Cl)cccc12

IC50 [3]: 4.1 nM | clearance [20]: 123 mL/min/kg | bioavailability [21]: 6%
SMILES: Cc1ccc(S(=O)(=O)N2CCNC(=O)[C@H]2CC(=O)N[C@@H]2CCCc3cc(CN4CCCCC4)ccc32)cc1

Ki [1]: 6370 nM
SMILES: Cc1nn(-c2cccc(C(=O)N[C@@H]3CCCc4cc(CN5CCCCC5)ccc43)c2)c(=O)c2ccccc12

Ki [1]: > 10000 nM
SMILES: O=C(N[C@@H]1CCCc2cc(CN3CCCCC3)ccc21)c1cccc(-n2cnc3ccccc3c2=O)c1

Activity [14]: inactive
SMILES: Cc1nn(-c2ccc(C(=O)N[C@@H]3CCCc4cc(CN5CCCCC5)ccc43)cn2)c(=O)c2c(Cl)cccc12
Activity [4]: Not Active | Activity [8]: Not Active
